Experimental data reported in paper PMC12226733, “Evolution of iGluR ligand specificity, polyamine regulation, and ion selectivity inferred from a placozoan epsilon receptor” (Communications Biology, 2025).
Values joined by “and” are separate entries in the source; they are usually repeats but may differ in a detail not shown here. Equal values may be shown once. Read-outs that look alike come from different tables or passages of the source.

Columns and labels:
GluE1αA wildtype = assay type: cell-based, Trichoplax adhaerens; settings: […]; for normalized conductance (G-V, Figure 5g), Avg: Na vs Na; for I-V current, Na vs Na, Avg of recordings: Figure 5b
GluE1αA D646A variant = test system: GluE1αA D646A variant
Text: (§1) The cDNA of the T. adhaerens GluE1αA receptor was cloned into the mammalian expression vector pIRES2-EGFP, using a 5’ nested primer that inserted a mammalian consensus Kozak sequence of […] (Supplementary Table 5). Several mutants/variants of this receptor where also prepared via site directed mutagenesis using standard procedures and primers listed in Supplementary Table 5. For electrophysiological comparisons, we commissioned GenScript (USA) to synthesize the cDNA of the human GluA2 […] receptor (NCBI accession number NP_001077088.2), which was cloned into the pIRES2-EGFP vector with a Kozak sequence flanking the start codon and restriction enzymes SalI and BamHI at the 5’ and 3’ ends of the cDNA, respectively. Receptor cDNAs in the various pIRES2 constructs were transfected into Chinese Hamster Ovary-K1 (CHO-K1; Sigma) cells cultured in Dulbecco’s Modified Eagle Medium Nutrient Mixture F-12 (DMEM/F12) supplemented with 10% Fetal Bovine Serum (FBS) and 1% penicillin-streptomycin at 37°C. Transfections were done with 2 μg of plasmid vector using the transfecting reagent PolyJet^TM (SignaGen Laboratories, USA) according to the manufacturer’s instructions and plated onto glass coverslips in 35 mm dishes the next day. Transfected cells were incubated at 28°C for 2 to 4 days, then coverslips were transferred to a new 60 mm dish with 5 mL of external recording solution. […] Agonists and pharmacological compounds used in this study were dissolved in corresponding external solutions. […] Patch pipettes were pulled using a P-1000 micropipette puller (Sutter, USA), from thick-walled borosilicate tubing (1.5 and 0.86 outer and inner diameter, respectively), to a resistance of between 1 and 6 megaohms.

[1] = target: T1, GluE1αA wildtype receptor (Trichoplax adhaerens, UniProt B3SAW0); settings: wt
T1 sequence (B3SAW0 1-341): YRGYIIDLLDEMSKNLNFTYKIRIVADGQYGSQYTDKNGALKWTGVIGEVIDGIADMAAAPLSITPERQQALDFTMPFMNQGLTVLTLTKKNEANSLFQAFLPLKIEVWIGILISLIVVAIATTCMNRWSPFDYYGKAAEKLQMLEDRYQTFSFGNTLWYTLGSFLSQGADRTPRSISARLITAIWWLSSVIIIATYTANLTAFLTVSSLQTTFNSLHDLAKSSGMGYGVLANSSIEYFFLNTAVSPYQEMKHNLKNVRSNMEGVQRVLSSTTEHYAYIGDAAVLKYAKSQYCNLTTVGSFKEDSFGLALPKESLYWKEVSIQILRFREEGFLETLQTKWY
Text: as §1

GluE1αA D646A = settings: single recordings c1-c7, AVG c8
Text: To further elucidate the nature of internal polyamine block in GluE1αA, we performed outside-out membrane patch clamp experiments in wildtype and mutant channels. […] Current-voltage (I-V) relationships were converted to conductance-voltage (G-V) plots and fit with a single permeant blocker model to estimate both the dissociation constant for Spm at 0 mV (Kd(0mV)) and the voltage dependency of block, as previously described[46],[47].
HEK-293T/17 cells (ATCC) were maintained in MEM supplemented with GlutaMAX and 10% fetal bovine serum (FBS) at 37 °C and 5% CO2. […] Transient transfections were carried out 48 h post-plating using the calcium phosphate precipitation method. After 6–8 hours, cells were washed twice with PBS and maintained in fresh medium. Cells transfected with mammalian GluA2 cDNA (plasmid vector described above) were returned to an incubator at 37 °C for 24–48 hours and cells transfected with Epsilon GluE1αA were incubated at 28 °C for 48–72 hours. In cells co-transfected with TARP-γ2, 30 μM NBQX was included in the medium to minimize AMPAR/auxiliary-induced cytotoxicity. All constructs were co-transfected with a plasmid encoding enhanced green fluorescent protein (eGFP) to identify transfected cells. Electrophysiology responses were recorded from outside-out patches excised from transfected cells. Recording pipettes were composed of borosilicate glass (3 to 6 megaohm, King Precision Glass) coated with dental wax to reduce electrical noise. All recordings were performed using Axopatch 200B amplifier (Molecular Devices, LLC). Current records were filtered at 5 or 10 kHz and sampled at 25–50 kHz. Series resistance (3 to 12 megaohms) was compensated by 95%. Recordings were performed at a range of holding potentials from −100 mV to 100 mV to study polyamine block. Data was acquired using pClamp9 software (Molecular Devices, LLC). All experiments were performed at room temperature. All chemicals were purchased from Sigma-Aldrich, unless otherwise indicated. External solution contained (in mM): 150 NaCl, 5 HEPES, 0.1 CaCl2, 0.1 MgCl, and […], pH 7.3–7.4. […] The osmotic pressure of all solutions was adjusted to 295 to 300 mOsm with sucrose. […] Stocks were thawed on the day of the experiment and used to prepared agonist-containing external solutions. Raw data for all electrophysiology experiments are provided in Supplementary Data 3. Current-voltage (I-V) relationships were fit using Origin 7 (OriginLab) using a ninth order polynomial function to estimate the reversal potential (Vrev).
Agonist-evoked membrane conductance (G) was calculated using the following equation: G=I/(V−Vrev) […]

[Na+] [Na]
normalized conductance (G-V, Figure 5g), Avg (GluE1αA wildtype; Vm 0.00): 0.54
normalized conductance (G-V, Figure 5g), Avg (GluE1αA wildtype; Vm 20.00): 0.50
normalized conductance (G-V, Figure 5g), Avg (GluE1αA wildtype; Vm 40.00): 0.58
normalized conductance (G-V, Figure 5g), Avg (GluE1αA wildtype; Vm 60.00): 0.65
normalized conductance (G-V, Figure 5g), Avg (GluE1αA wildtype; Vm 80.00): 0.67
normalized conductance (G-V, Figure 5g), Avg (GluE1αA wildtype; Vm -20.00): 0.70
normalized conductance (G-V, Figure 5g), Avg (GluE1αA wildtype; Vm -40.00): 0.83
normalized conductance (G-V, Figure 5g), Avg (GluE1αA wildtype; Vm -60.00): 0.93
normalized conductance (G-V, Figure 5g), Avg (GluE1αA wildtype; Vm -80.00): 1.00
I-V current, Na vs Na, Avg of recordings (GluE1αA wildtype; Vm 0.00): -0.0053
I-V current, Na vs Na, Avg of recordings (GluE1αA wildtype; Vm 20.00): 0.11
I-V current, Na vs Na, Avg of recordings (GluE1αA wildtype; Vm 40.00): 0.23
I-V current, Na vs Na, Avg of recordings (GluE1αA wildtype; Vm 60.00): 0.38
I-V current, Na vs Na, Avg of recordings (GluE1αA wildtype; Vm 80.00): 0.54
I-V current, Na vs Na, Avg of recordings (GluE1αA wildtype; Vm -20.00): -0.15
I-V current, Na vs Na, Avg of recordings (GluE1αA wildtype; Vm -40.00): -0.34
I-V current, Na vs Na, Avg of recordings (GluE1αA wildtype; Vm -60.00): -0.54
I-V current, Na vs Na, Avg of recordings (GluE1αA wildtype; Vm -80.00): -0.77

NCCCNCCCCNCCCN [spermine]
reduction in peak inward current (percent block) (GluE1αA D646A variant; 200 µM extracellular spermine): 14.0 ± 1.1%
reduction in peak inward current (GluE1αA D646A variant; 1000 µM extracellular spermine): 40.2 ± 3.4%
normalized current elicited by 3 mM glycine with co-applied spermine, Avg (GluE1αA D646A variant; spermine 200 µM extracellular): 0.8603
normalized current elicited by 3 mM glycine with co-applied spermine, Avg (GluE1αA D646A variant; spermine 1000 µM extracellular): 0.5979
normalized current elicited by 3 mM glycine with co-applied spermine, Avg ([1]; spermine 200 µM extracellular): 0.8673
normalized current elicited by 3 mM glycine with co-applied spermine, Avg ([1]; spermine 1000 µM extracellular): 0.8213
Normalized current (Inorm) (GluE1αA D646A; 20 mV): 0.12 and 0.10 and 0.11
Normalized current (Inorm) (GluE1αA D646A; 30 mV): 0.18 and 0.16 and 0.19
Normalized conductance (Gnorm) (GluE1αA D646A; -100 mV): 1.00
Normalized current (Inorm) (GluE1αA D646A; -100 mV): -1.00
